Patent publication US10357036B2, “Compounds for controlling arthropods” (priority 2015, dated 2019)
Where “and” joins values, the source holds several entries; their conditions need not be identical. Identical values can stand only once.

What was measured:
[1] = tested on: Rhipicephalus sanguineus; test: Rhipicephalus sanguineus in vitro contact test with adult brown dog ticks; assay type: in vivo; conditions: application rate 5 μg/cm^2 (=500 g/ha); after 48 h; dead or moribund ticks
Procedure: (§1) For the coating of the test tubes, 9 mg of active ingredient are first dissolved in 1 ml of acetone p.a. and then diluted to the desired concentration with acetone p.a. 250 μl of the solution are distributed homogeneously on the inner walls and the base of a 25 ml glass tube by turning and rocking on an orbital shaker (rocking rotation at 30 rpm for 2 h). With 900 ppm of active ingredient solution and internal surface area 44.7 cm^2, given homogeneous distribution, an area-based dose of 5 μg/cm^2 is achieved.
After the solvent has evaporated off, the tubes are populated with 5-10 adult dog ticks (Rhipicephalus sanguineus), sealed with a perforated plastic lid and incubated in a horizontal position in the dark at room temperature and ambient humidity. After 48 h, efficacy is determined. To this end, the ticks are knocked to the base of the tube and incubated on a hotplate at 45-50° C. for not more than 5 min. Ticks which remain motionless on the base or move in such an uncoordinated manner that they are unable to deliberately avoid the heat by climbing upwards are considered to be dead or moribund.
An efficacy of 100% means that all the ticks were dead or moribund. 0% efficacy means that none of the ticks were harmed.

[2] = tested on: Spodoptera frugiperda; test: Spodoptera frugiperda spray test; assay type: in vivo; conditions: 100 g/ha; after 7 days
[3] = tested on: Ctenocephalides felis; test: Ctenocephalides felis oral test; assay type: in vivo; conditions: 100 ppm in citrated cattle blood; after 2 days
Procedure: • Solvent: Dimethyl Sulfoxide
To produce a suitable active ingredient formulation, 10 mg of active ingredient are mixed with 0.5 ml of dimethyl sulfoxide. Dilution with citrated cattle blood gives the desired concentration.
About 20 unfed adult cat fleas (Ctenocephalides fells) are placed into a chamber which is closed at the top and bottom with gauze. A metal cylinder whose bottom end is closed with parafilm is placed onto the chamber. The cylinder contains the blood/active ingredient formulation, which can be imbibed by the fleas through the parafilm membrane.

[4] = tested on: Phaedon cochleariae; test: Phaedon cochleariae spray test; conditions: 100 g/ha; after 7 days
[5] = tested on: Boophilus microplus; test: Boophilus microplus injection test; assay type: in vivo; conditions: 20 μg/animal; assessed after 7 days
Procedure: (§2) • Solvent: dimethyl sulfoxide
1 μl of the active ingredient solution is injected into the abdomen of 5 engorged adult female cattle ticks (Boophilus microplus). The animals are transferred into dishes and kept in a climate-controlled room.

[6] = tested on: Musca domestica; test: Musca domestica test; assay type: in vivo; conditions: 100 ppm; adult houseflies; after 2 days
Procedure: as §2
To produce a suitable active ingredient formulation, 10 mg of active ingredient are mixed with 0.5 ml of dimethyl sulfoxide, and the concentrate is diluted with water to the desired concentration.
Vessels containing a sponge treated with sugar solution and the active ingredient formulation of the desired concentration are populated with 10 adult houseflies (Musca domestica).

[7] = tested on: Ctenocephalides felis; test: Ctenocephalides felis in vitro contact test with adult cat fleas; assay type: in vivo; conditions: application rate 5 μg/cm^2 (=500 g/ha); after 48 h; dead or moribund fleas
Procedure: as §1
After the solvent has evaporated off, the tubes are populated with 5-10 adult cat fleas (Ctenocephalides felis), sealed with a perforated plastic lid and incubated in a horizontal position at room temperature and ambient humidity. After 48 h, efficacy is determined. To this end, the tubes are stood upright and the fleas are knocked to the base of the tube. Fleas which remain motionless at the base or move in an uncoordinated manner are considered to be dead or moribund.
100% efficacy means that all the fleas were dead or moribund. 0% efficacy means that no fleas were harmed.

[8] = tested on: Tetranychus urticae; test: Tetranychus urticae spray test, OP-resistant (bean leaf discs); assay type: in vivo; conditions: 100 g/ha; after 6 days
Procedure: After 6 days, the efficacy in % is determined.

## CC(=O)NCc1cccc(-c2cnn(-c3c(Cl)cc(C(F)(C(F)(F)F)C(F)(F)F)cc3OC(F)(F)F)c2)c1 [Ia-38]
[1]
  efficacy: 80%
[2]
  efficacy: 100%
[3]
  efficacy (rate of extermination): 100%
[4]
  efficacy: 100%
[5]
  efficacy (laying of fertile eggs): 100%
[6]
  efficacy (rate of extermination): 100%

## CC(=O)NCc1c(F)ccc(-c2cnn(-c3c(Cl)cc(C(F)(C(F)(F)F)C(F)(F)F)cc3OC(F)F)c2)c1F [Ia-158]
[7]
  efficacy: 100%
[8]
  efficacy: 100%
[2]
  efficacy: 100%
[3]
  efficacy (rate of extermination): 100%
[4]
  efficacy: 100%
[5]
  efficacy (laying of fertile eggs): 100%
[6]
  efficacy (rate of extermination): 100%

## CSc1cc(C(F)(C(F)(F)F)C(F)(F)F)cc(Cl)c1-n1cc(-c2ccc(F)c(CNC(C)=O)c2)cn1 [Ia-07]
[7]
  efficacy: 100%
[8]
  efficacy: 100%
[2]
  efficacy: 83%
[3]
  efficacy (rate of extermination): 100%
[4]
  efficacy: 100%
[5]
  efficacy (laying of fertile eggs): 100%
[6]
  efficacy (rate of extermination): 100%

## CCC(=O)NCc1c(F)ccc(-c2cnn(-c3c(Cl)cc(C(F)(C(F)(F)F)C(F)(F)F)cc3C(F)(F)F)c2)c1F [Ia-146]
[1]
  efficacy: 100%
[2]
  efficacy: 100%
[3]
  efficacy (rate of extermination): 100%
[4]
  efficacy: 100%
[5]
  efficacy (laying of fertile eggs): 100%
[6]
  efficacy (rate of extermination): 100%

## CCC(=O)NCc1cc(-c2cnn(-c3c(Cl)cc(C(F)(C(F)(F)F)C(F)(F)F)cc3C(F)(F)F)c2)ccc1Cl [Ia-29]
[1]
  efficacy: 100%
[2]
  efficacy: 100%
[3]
  efficacy (rate of extermination): 100%
[4]
  efficacy: 100%
[5]
  efficacy (laying of fertile eggs): 100%
[6]
  efficacy (rate of extermination): 100%

## CCC(=O)NCc1cc(-c2cnn(-c3c(Cl)cc(C(F)(C(F)(F)F)C(F)(F)F)cc3OC(F)(F)F)c2)ccc1F [Ia-26]
[1]
  efficacy: 80%
[8]
  efficacy: 90%
[2]
  efficacy: 100%
[3]
  efficacy (rate of extermination): 100%
[4]
  efficacy: 100%
[5]
  efficacy (laying of fertile eggs): 100%
[6]
  efficacy (rate of extermination): 100%

## Cc1cc(C(F)(C(F)(F)F)C(F)(F)F)cc(C)c1-n1cc(-c2ccc(F)c(CNC(=O)C3CC3)c2)cn1 [Ia-04]
[1]
  efficacy: 100%
[8]
  efficacy: 100%
[2]
  efficacy: 100%
[3]
  efficacy (rate of extermination): 100%
[4]
  efficacy: 100%
[5]
  efficacy (laying of fertile eggs): 100%
[6]
  efficacy (rate of extermination): 100%

## N-(2-chloro-5-{1-[2,6-dichloro-4-(1,1,1,2,3,3,3-heptafluoropropan-2-yl)phenyl]-1H-pyrazol-4-yl}benzyl)-N-methylpropanamide [Ia-22]
[1]
  efficacy: 80%
[8]
  efficacy: 90%
[3]
  efficacy (rate of extermination): 100%
[4]
  efficacy: 100%
[5]
  efficacy (laying of fertile eggs): 100%

## N#Cc1cc(C(F)(C(F)(F)F)C(F)(F)F)cc(Cl)c1-n1cc(-c2ccc(F)c(CNC(=O)C3CC3)c2)cn1 [Ia-107]
[7]
  efficacy: 100%
[8]
  efficacy: 100%
[2]
  efficacy: 100%
[3]
  efficacy (rate of extermination): 100%
[4]
  efficacy: 100%
[5]
  efficacy (laying of fertile eggs): 100%
[6]
  efficacy (rate of extermination): 100%

## CCC(=O)NCc1cccc(-c2cnn(-c3c(Cl)cc(C(F)(C(F)(F)F)C(F)(F)F)cc3C(F)F)c2)c1F [Ia-143]
[1]
  efficacy: 80%
[2]
  efficacy: 100%
[3]
  efficacy (rate of extermination): 100%
[4]
  efficacy: 100%
[5]
  efficacy (laying of fertile eggs): 100%
[6]
  efficacy (rate of extermination): 100%

## CCOCN(Cc1cc(-c2cnn(-c3c(Cl)cc(C(F)(C(F)(F)F)C(F)(F)F)cc3Cl)c2)ccc1Cl)C(C)=O [Ia-117]
[7]
  efficacy: 100%
[2]
  efficacy: 100%
[3]
  efficacy (rate of extermination): 100%
[4]
  efficacy: 100%
[5]
  efficacy (laying of fertile eggs): 100%
[6]
  efficacy (rate of extermination): 100%

## CCC(=O)NCc1c(F)ccc(-c2cnn(-c3c(Cl)cc(C(F)(C(F)(F)F)C(F)(F)F)cc3OC(F)F)c2)c1F [Ia-157]
[1]
  efficacy: 100%
[8]
  efficacy: 90%
[2]
  efficacy: 100%
[3]
  efficacy (rate of extermination): 100%
[4]
  efficacy: 100%
[5]
  efficacy (laying of fertile eggs): 100%
[6]
  efficacy (rate of extermination): 100%

## CC(=O)NCc1cc(-c2cnn(-c3c(Cl)cc(C(F)(C(F)(F)F)C(F)(F)F)cc3Cl)c2)cnc1Cl [Ia-130]
[7]
  efficacy: 100%
[8]
  efficacy: 90%
[2]
  efficacy: 100%
[3]
  efficacy (rate of extermination): 100%
[4]
  efficacy: 100%
[5]
  efficacy (laying of fertile eggs): 100%
[6]
  efficacy (rate of extermination): 100%

## CCC(=O)N(C)Cc1cc(-c2cnn(-c3c(Cl)cc(C(F)(C(F)(F)F)C(F)(F)F)cc3Cl)c2)ccc1F [Ia-71]
[7]
  efficacy: 100%
[8]
  efficacy: 100%
[2]
  efficacy: 100%
[3]
  efficacy (rate of extermination): 100%
[4]
  efficacy: 100%
[5]
  efficacy (laying of fertile eggs): 100%
[6]
  efficacy (rate of extermination): 100%

## C=CCN(Cc1cc(-c2cnn(-c3c(Cl)cc(C(F)(C(F)(F)F)C(F)(F)F)cc3Cl)c2)ccc1Cl)C(C)=O [Ia-113]
[7]
  efficacy: 100%
[8]
  efficacy: 90%
[2]
  efficacy: 100%
[3]
  efficacy (rate of extermination): 100%
[4]
  efficacy: 100%
[5]
  efficacy (laying of fertile eggs): 100%
[6]
  efficacy (rate of extermination): 100%

## CC(=O)NCc1cc(-c2cnn(-c3c(Cl)cc(C(F)(C(F)(F)F)C(F)(F)F)cc3OC(F)(F)F)c2)cnc1Cl [Ia-131]
[7]
  efficacy: 100%
[2]
  efficacy: 100%
[3]
  efficacy (rate of extermination): 100%
[4]
  efficacy: 100%
[5]
  efficacy (laying of fertile eggs): 100%
[6]
  efficacy (rate of extermination): 100%

## O=C(CC(F)(F)F)NCc1cc(-c2cnn(-c3c(Cl)cc(C(F)(C(F)(F)F)C(F)(F)F)cc3OC(F)(F)F)c2)ccc1F [Ia-19]
[1]
  efficacy: 100%
[8]
  efficacy: 90%
[2]
  efficacy: 100%
[3]
  efficacy (rate of extermination): 100%
[4]
  efficacy: 100%
[5]
  efficacy (laying of fertile eggs): 100%
[6]
  efficacy (rate of extermination): 100%

## CC(=O)NCc1cccc(-c2cnn(-c3c(C)cc(C(F)(C(F)(F)F)C(F)(F)F)cc3Cl)c2)c1 [Ia-68]
[1]
  efficacy: 80%
[8]
  efficacy: 100%
[2]
  efficacy: 83%
[3]
  efficacy (rate of extermination): 100%
[4]
  efficacy: 100%
[5]
  efficacy (laying of fertile eggs): 100%
[6]
  efficacy (rate of extermination): 100%

## O=C(NCc1cc(-c2cnn(-c3c(Cl)cc(C(F)(C(F)(F)F)C(F)(F)F)cc3OC(F)(F)F)c2)ccc1F)C1CC1 [Ia-40]
[1]
  efficacy: 80%
[2]
  efficacy: 100%
[3]
  efficacy (rate of extermination): 100%
[4]
  efficacy: 100%
[5]
  efficacy (laying of fertile eggs): 100%
[6]
  efficacy (rate of extermination): 100%

## CC(C)C(=O)NCc1cc(-c2cnn(-c3c(Cl)cc(C(F)(C(F)(F)F)C(F)(F)F)cc3C(F)F)c2)ccc1F [Ia-60]
[7]
  efficacy: 100%
[8]
  efficacy: 100%
[2]
  efficacy: 100%
[3]
  efficacy (rate of extermination): 100%
[4]
  efficacy: 100%
[5]
  efficacy (laying of fertile eggs): 100%
[6]
  efficacy (rate of extermination): 100%

## CC(=O)N(C)Cc1cc(-c2cnn(-c3c(Cl)cc(C(F)(C(F)(F)F)C(F)(F)F)cc3Cl)c2)cnc1Cl [Ia-73]
[7]
  efficacy: 100%
[8]
  efficacy: 100% and 90%
[2]
  efficacy: 100%
[3]
  efficacy (rate of extermination): 100%
[4]
  efficacy: 100%
[5]
  efficacy (laying of fertile eggs): 100%
[6]
  efficacy (rate of extermination): 100%

## CC(=O)N(C)Cc1cc(-c2cnn(-c3c(Cl)cc(C(F)(C(F)(F)F)C(F)(F)F)cc3Cl)c2)ccc1F [Ia-64]
[7]
  efficacy: 100%
[8]
  efficacy: 100%
[2]
  efficacy: 100%
[3]
  efficacy (rate of extermination): 100%
[4]
  efficacy: 100%
[5]
  efficacy (laying of fertile eggs): 100%
[6]
  efficacy (rate of extermination): 100%
